Converted amounts (≈) assume the structure as drawn.
Tests used:
[1] = tested on: Enterobacter cloacae ATCC 13 047; test: serial dilution test in microtiter system (bacteriostasis, MIC); type: cell-based; settings: ATCC13, liquid medium, 18 to 20 h at 37°C, read-out: MHK-Werte Eb. cloacae 13 047
Description: (§1) Für die Untersuchungen wurde die Methode des Reihenverdünnungstestes im Mikrotitersystem angewandt. Die Prüfung der Substanzen auf Bakteriostase erfolgte in flüssigem Medium. Es wurde die Bakteriostasewirkung bei folgenden Konzentrationen untersucht.
(§2) Es wurde ein Nährboden folgender Zusammensetzung benutzt: 10 g Pepton, 8 g Fleischextrakt-Oxoid, 3 g Natriumschlorid, 2 g sek. Natriumphosphat werden mit dest. Wasser auf 1000 ml aufgefüllt (pH 7,2-7,4). Lediglich bei der Testung gegen Streptokokken wurde 1% Glucose hinzugefügt. Das Alter der Primärkulturen betrug etwa 20 Stunden. Die Einstellung der Keimsuspension erfolgte am Photometer (nach "Eppendorf") (Reagenzglas-Durchmesser 14 mm, Filter 546 nm) anhand der Trübung einer Bariumsulfat-Vergleichssuspension, die durch eine Bariumsulfat-Aufschwemmung erzeugt wurde, welche durch die Zugabe von 3,0 ml 1%ige Bariumchloridlösung in 97 ml 1%ige Schwefelsäure entstand. Nach der Einstellung wurden Streptococcus Aronson im Verhältnis 1:15 und die übrigen Testkeime im Verhältnis 1:1500 mit einer Kochsalzlösung weiter verdünnt.
(§3) 16 mg der jeweiligen Substanz wurden in 10 ml-Meßkolben eingewogen und mit dem Lösungsmittel bis zur Marke aufgefüllt. Die weitere Verdünnungsreihe wurde mit destilliertem Wasser oder dem jeweiligen Lösungsmittel hergestellt.
(§4) Die Vertiefungen der Mikrotiterplatten wurden mit 0,2 ml Nährmedium, 0,01 ml der entsprechenden Substanzverdünnung und mit einem Tropfen Keimsuspension (0,01 ml) beschickt und 18 bis 20 Stunden bei 37°C bebrütet. Eine Lösungsmittelkontrolle wurde stets mitgeführt.
(§5) Die Ablesung wurde makroskopisch vorgenommen, wobei die jeweilige Grenkonzentration (= niedrigste noch bakteriostatisch wirksame Konzentration) ermittelt wurde.
(§6) Als Testorganismen wurden benützt: - Staphylococcus aureus SG 511, Escherichia coli ATCC 11 775, Pseudomonas aeruginosa Hamburgensis und Walter, Serratia marcescens ATCC 13 880, Klebsiella pneumoniae ATCC 10 031 und BC 6, Proteus mirabilis Hamburgensis, Proteus rettgeri BC 7 und Enterobacter cloacae ATCC 13 047.
(§7) In der folgenden Tabelle 2 sind die ermittelten minimalen Hemmkonzentrationen (MIC) für typische Vertreter der erfindungsgemäßen Verbindungen aufgeführt, wobei sich die Ziffern auf die Penicilline der Tabelle 1 Seite 18 beziehen.

[2] = tested on: Escherichia coli ATCC 11 775; test: as above; type: cell-based; settings: ATCC11, liquid medium, 18 to 20 h at 37°C, read-out: MHK-Werte E.coli ATCC 11 755
Description: as §1, §2, §3, §4, §5, §6, §7

[3] = tested on: Klebsiella pneumoniae ATCC 10 031; test: as above; type: cell-based; settings: ATCC10, liquid medium, 18 to 20 h at 37°C, read-out: MHK-Werte Kl. pneum. ATCC 10 031
Description: as §1, §2, §3, §4, §5, §6, §7

[4] = tested on: Klebsiella pneumoniae BC 6; test: as above; type: cell-based; settings: BC6, liquid medium, 18 to 20 h at 37°C, read-out: MHK-Werte Kl. pneum. BC 6
Description: as §1, §2, §3, §4, §5, §6, §7

[5] = tested on: Proteus mirabilis Hamburgensis; test: as above; type: cell-based; settings: liquid medium, 18 to 20 h at 37°C, read-out: MHK-Werte Prot. mir. Hbg.
Description: as §1, §2, §3, §4, §5, §6, §7

Proteus rettgeri BC 7 = test: as above; type: cell-based; settings: Providencia rettgeri, BC7; liquid medium, 18 to 20 h at 37°C; read-out: MHK-Werte Prot. rettg. BC 7
Description: as §1, §2, §3, §4, §5, §6, §7

[6] = tested on: Pseudomonas aeruginosa Hamburgensis; test: as above; type: cell-based; settings: liquid medium, 18 to 20 h at 37°C, read-out: MHK-Werte Pseud. aerug. Hbg.
Description: as §1, §2, §3, §4, §5, §6, §7

[7] = tested on: Pseudomonas aeruginosa Walter; test: as above; type: cell-based; settings: liquid medium, 18 to 20 h at 37°C, read-out: MHK-Werte Pseud. aerug. Walter
Description: as §1, §2, §3, §4, §5, §6, §7

[8] = tested on: Serratia marcescens ATCC 13 880; test: as above; type: cell-based; settings: ATCC13, liquid medium, 18 to 20 h at 37°C, read-out: MHK-Werte Serr. marcesc. ATCC 13 880
Description: as §1, §2, §3, §4, §5, §6, §7

[9] = tested on: Staphylococcus aureus SG 511; test: as above; type: cell-based; settings: SG511, liquid medium, 18 to 20 h at 37°C, read-out: MHK-Werte Staph. aureus SG 511
Description: as §1, §2, §3, §4, §5, §6, §7

E.coli ATCC 11 775 = test: experimental intraperitoneal infection in mice, ED50 (survival); type: in vivo, Mäuse; settings: Escherichia coli, ATCC 11 / ATCC 1175, sc, 168 h; female NMRI mice, i.p. infection, s.c. application, treated once, 7 days observation
Description: Eine Reihe der erfindungsgemäßen Verbindungen wurde in vivo bei experimentellen Infektionen an Mäusen untersucht. Man verwendete als pathogene Bakterien E.coli ATCC 11 775 und Pseudomonas aeruginosa Walter. Es wurde eine intraperitoneale Infektion mit 0,2 ml einer 5%igen Mucinsuspension der Bakterien gesetzt. Dies entspricht etwa 2x10^6 Keime E.coli bzw. 8x10^5 Keime Pseudomonas/Maus. Weibliche Mäuse vom Stamm NMRI wurden in Gruppen von jeweils 10 Tieren aufgeteilt, zwei Gruppen blieben unbehandelt, die restlichen Gruppen wurden mit verschiedenen Dosen der jeweiligen erfindungsgemäßen Penicilline zur Bestimmung der ED50 (Dosis, bei der 50 % der Tiere überleben) behandelt. Bei der E.coli-Infektion wurde einmal therapiert. Bei der Pseudomonas-Infektion wurde dreimal behandelt.
Der Beobachtungszeitraum betrug in beiden Fällen 7 Tage. Die Ergebnisse dieser Teste mit repräsentativen Vertretern der erfindungsgemäßen Penicilline sind in der Tabelle 3 dargestellt.

Row | MIC [1] [µg/mL] | MIC [2] [µg/mL] | MIC [3] [µg/mL] | MIC [4] [µg/mL] | MIC [5] [µg/mL] | MIC (Proteus rettgeri BC 7) [µg/mL] | MIC [6] [µg/mL] | MIC [7] [µg/mL] | MIC [8] [µg/mL] | MIC [9] [µg/mL] | Compound | ED50 (E.coli ATCC 11 775) [mg/kg]
1 | 2 (≈ 3 µM) | 0.5 (≈ 0.751 µM) | 4 (≈ 6.01 µM) | 4 (≈ 6.01 µM) | 0.06 (≈ 0.0901 µM) | 1 (≈ 1.5 µM) | 2 (≈ 3 µM) | 2 (≈ 3 µM) | 0.5 (≈ 0.751 µM) | 0.5 (≈ 0.751 µM) | CC(=O)Oc1ccc(CNc2ncc(NC(=O)NC(C(=O)N[C@@H]3C(=O)N4[C@@H]3SC(C)(C)[C@@H]4C(=O)O)c3ccc(O)cc3)c(O)n2)cc1 (stereo partly drawn) [Verbindung 59] | 
2 | 1 (≈ 1.6 µM) | 0.25 (≈ 0.4 µM) | 2 (≈ 3.2 µM) | 2 (≈ 3.2 µM) | 0.25 (≈ 0.4 µM) | 0.5 (≈ 0.799 µM) | 2 (≈ 3.2 µM) | 2 (≈ 3.2 µM) | 0.5 (≈ 0.799 µM) | 0.25 (≈ 0.4 µM) | CC1(C)S[C@@H]2[C@H](NC(=O)C(NC(=O)Nc3cnc(NCc4ccc(F)cc4)nc3O)c3ccc(O)cc3)C(=O)N2[C@H]1C(=O)O (stereo partly drawn) [Verbindung 60] | 
3 | 1 (≈ 1.69 µM) | 0.25 (≈ 0.423 µM) | 1 (≈ 1.69 µM) | 2 (≈ 3.38 µM) | 0.25 (≈ 0.423 µM) | 0.5 (≈ 0.845 µM) | 2 (≈ 3.38 µM) | 2 (≈ 3.38 µM) | 0.5 (≈ 0.845 µM) | 0.25 (≈ 0.423 µM) | CC1(C)S[C@@H]2[C@H](NC(=O)C(NC(=O)Nc3cnc(NCc4ccccc4)nc3O)c3ccccc3)C(=O)N2[C@H]1C(=O)O (stereo partly drawn) [Verbindung 61] | 
4 | 1 (≈ 1.49 µM) | 0.25 (≈ 0.372 µM) | 2 (≈ 2.97 µM) | 2 (≈ 2.97 µM) | 0.06 (≈ 0.0892 µM) | 0.25 (≈ 0.372 µM) | 2 (≈ 2.97 µM) | 2 (≈ 2.97 µM) | 0.25 (≈ 0.372 µM) | 0.5 (≈ 0.743 µM) | CC1(C)S[C@@H]2[C@H](NC(=O)[C@H](NC(=O)Nc3cnc(Nc4cccc(S(N)(=O)=O)c4)nc3O)c3ccc(O)cc3)C(=O)N2[C@H]1C(=O)O [Verbindung 5] | 
5 | 1 (≈ 1.38 µM) | 0.25 (≈ 0.346 µM) | 1 (≈ 1.38 µM) | 1 (≈ 1.38 µM) | 0.12 (≈ 0.166 µM) | 0.5 (≈ 0.691 µM) | 2 (≈ 2.77 µM) | 2 (≈ 2.77 µM) | 0.25 (≈ 0.346 µM) | 0.25 (≈ 0.346 µM) | CC1(C)SC2C(NC(=O)C(NC(=O)Nc3cnc(Nc4ccc(S(N)(=O)=O)c(O)c4)nc3O)c3ccc(O)c(Cl)c3)C(=O)N2C1C(=O)O (stereo not drawn) [Verbindung 49] | 
6 | 1 (≈ 1.39 µM) | 0.25 (≈ 0.347 µM) | 2 (≈ 2.77 µM) | 1 (≈ 1.39 µM) | 0.25 (≈ 0.347 µM) | 0.5 (≈ 0.693 µM) | 2 (≈ 2.77 µM) | 2 (≈ 2.77 µM) | 0.25 (≈ 0.347 µM) | 0.25 (≈ 0.347 µM) | CNS(=O)(=O)c1ccc(Nc2ncc(NC(=O)N[C@@H](C(=O)N[C@@H]3C(=O)N4[C@@H]3SC(C)(C)[C@@H]4C(=O)O)c3ccc(O)c(Cl)c3)c(O)n2)cc1 [Verbindung 13] | 
7 | 2 (≈ 2.94 µM) | 0.25 (≈ 0.368 µM) | 2 (≈ 2.94 µM) | 4 (≈ 5.89 µM) | 0.12 (≈ 0.177 µM) | 0.5 (≈ 0.736 µM) | 1 (≈ 1.47 µM) | 1 (≈ 1.47 µM) | 0.25 (≈ 0.368 µM) | 0.25 (≈ 0.368 µM) | CC1(C)S[C@@H]2[C@H](NC(=O)C(NC(=O)Nc3cnc(Nc4ccc(C(N)=O)c(C(N)=O)c4)nc3O)c3ccc(O)cc3)C(=O)N2[C@H]1C(=O)O (stereo partly drawn) [Verbindung 55] | 
8 |  |  |  |  |  |  |  |  |  |  | CC1(C)S[C@@H]2[C@H](NC(=O)[C@H](NC(=O)Nc3cnc(Nc4ccc(S(N)(=O)=O)cc4)nc3O)C3=CCC=CC3)C(=O)N2[C@H]1C(=O)O [Verbindung 12] | 5
9 | 4 (≈ 5.66 µM) | 0.25 (≈ 0.354 µM) | 1 (≈ 1.42 µM) | 1 (≈ 1.42 µM) | 0.12 (≈ 0.17 µM) | 0.5 (≈ 0.708 µM) | 2 (≈ 2.83 µM) | 2 (≈ 2.83 µM) | 0.25 (≈ 0.354 µM) | 0.25 (≈ 0.354 µM) | CC1(C)SC2C(NC(=O)C(NC(=O)Nc3cnc(Nc4ccc(S(C)(=O)=O)cc4)nc3O)c3ccc(O)c(Cl)c3)C(=O)N2C1C(=O)O (stereo not drawn) [Verbindung 25] | 

— EP0051773A1, “Penicillins, their salts, process for their preparation and pharmaceutical compositions containing them” (Dr. Karl Thomae GmbH, priority 1980, dated 1982)
